In patent US20260265189A1, “NOVEL COMPOUND, AND PHARMACEUTICAL COMPOSITION COMPRISING SAME AS ACTIVE INGREDIENT” (SAPIENSBIO INC., priority 2022, published 2026):

How the values were obtained:
[1] = clinical use as therapeutic drug for pulmonary fibrosis; cited from earlier work
[2] = system: α-SMA expression in MRC5 cells; assay: inhibition of α-SMA expression in MRC5 cells, image screening method; format: cell-based; conditions: Homo sapiens; MRC5, compound 10 μM, TGF-β1 5 ng/mL, 72 hours, relative to TGF-β1 alone; read-out: Inhibitory activity (α-SMA expression inhibition)
Procedure: The ability of the compounds according to the present invention to inhibit the expression of α-SMA, which is a biomarker for pulmonary fibrosis, was evaluated by an image screening method. MRC5 cells were treated with the compound (10 μM) or DMSO under the condition of TGF-31 (5 ng/mL). 72 hours later, the cells were fixed with a 4% formaldehyde solution, treated with a 0.1% Triton-x100 solution, and treated with a 1% BSA solution to mask non-specific binding caused by antibodies. Anti-α-SMA-FITC (Sigma Aldrich) and anti-GAPDH (Cell Signaling Technology) were used as primary antibodies, and anti-mouse-TRITC was used as a secondary antibody. Imaging and analysis of the results were performed using Cytation5_Gen5_Version 3.12.08 (Bio Tek). Relative to the α-SMA expression level when TGF-31 was treated alone, the α-SMA expression level when both the compound and TGF-31 were treated was calculated as the ability of α-SMA expression inhibition of the corresponding compound.

Row | SMILES | lung function improvement [1] | inhibition at 10 µM [2]
1 | Cc1ccc(=O)n(-c2ccccc2)c1 [Pirfenidone] | about 10% | 
2 | O=C(NCC1CC1)N1CCN(Cc2ccccn2)c2ccccc21 [Compound 102, N-(cyclopropylmethyl)-4-(pyridin-2-ylmethyl)-3,4-dihydroquinoxaline-1(2H)-carboxamide] |  | 30 to 50%
3 | CC(C)N1CCC(NC(=O)N2CCN(c3cnccn3)c3ccccc32)CC1 [Compound 83, N-(1-isopropylpiperidin-4-yl)-4-(pyrazin-2-yl)-3,4-dihydroquinoxaline-1(2H)-carboxamide] |  | 10 to 30%
4 | CN1CC[C@@H](CNC(=O)N2CCN(c3ccc(F)cc3)c3ccccc32)C1 [Compound 58, (S)-4-(4-fluorophenyl)-N-((1-methylpyrrolidin-3-yl)methyl)-3,4-dihydroquinoxaline-1(2H)-carboxamide] |  | 30 to 50%
5 | CN[C@H]1CCN(C(=O)N2CCN(Cc3ccccc3)c3ccccc32)C1 [Compound 86, (S)-(4-benzyl-3,4-dihydroquinoxalin-1(2H)-yl)(3-(methylamino)pyrrolidin-1-yl)methanone] |  | 10 to 30%
6 | O=C(NC[C@H]1CCCN1)N1CCN(c2ccc(F)cc2)c2ccccc21 [Compound 57, (R)-4-(4-fluorophenyl)-N-(pyrrolidin-2-ylmethyl)-3,4-dihydroquinoxaline-1(2H)-carboxamide] |  | 30 to 50%
7 | CN(C)[C@H]1CCN(C(=O)N2CCN(Cc3ccccn3)c3ccccc32)C1 [Compound 97, (S)-(3-(dimethylamino)pyrrolidin-1-yl)(4-(pyridin-2-ylmethyl)-3,4-dihydroquinoxalin-1(2H)-yl)methanone] |  | 10 to 30%
8 | O=C(N[C@@H]1CCOC1)N1CCN(Cc2ccccn2)c2ccccc21 [Compound 98, (R)-4-(pyridin-2-ylmethyl)-N-(tetrahydrofuran-3-yl)-3,4-dihydroquinoxaline-1(2H)-carboxamide] |  | 30 to 50%
9 | CN1CC[C@H](CNC(=O)N2CCN(c3ccc(F)cc3)c3ccccc32)C1 [Compound 54, (R)-4-(4-fluorophenyl)-N-((1-methylpyrrolidin-3-yl)methyl)-3,4-dihydroquinoxaline-1(2H)-carboxamide] |  | 30 to 50%
10 | CC(C)N1CC[C@H](NC(=O)N2CCN(c3ccc(F)cc3)c3cc(F)ccc32)C1 [Compound 10, (S)-6-fluoro-4-(4-fluorophenyl)-N-(1-isopropylpyrrolidin-3-yl)-3,4-dihydroquinoxaline-1(2H)-carboxamide] |  | ≥ 70%
11 | O=C(NCC1CCOC1)N1CCN(c2ccc(F)cc2)c2cc(F)ccc21 (centres unmarked) [Compound 48, 6-fluoro-4-(4-fluorophenyl)-N-((tetrahydrofuran-3-yl)methyl)-3,4-dihydroquinoxaline-1(2H)-carboxamide] |  | 10 to 30%
12 | O=C(N[C@@H]1CCOC1)N1CCN(c2cccnc2)c2ccccc21 [Compound 73, (R)-4-(pyridin-3-yl)-N-(tetrahydrofuran-3-yl)-3,4-dihydroquinoxaline-1(2H)-carboxamide] |  | 30 to 50%
13 | CN1CCN(C(=O)N2CCN(C3CCCCC3)c3ccccc32)CC1 [Compound 107, (4-cyclohexyl-3,4-dihydroquinoxalin-1(2H)-yl)(4-methylpiperazin-1-yl)methanone] |  | 10 to 30%
14 | O=C(N[C@H]1CCNC1)N1CCN(c2ccc(F)cc2)c2ccccc21 [Compound 49, (S)-4-(4-fluorophenyl)-N-(pyrrolidin-3-yl)-3,4-dihydroquinoxaline-1(2H)-carboxamide] |  | 10 to 30%
15 | O=C(N1CCCC1)N1CCN(c2ccccc2Cl)c2ccccc21 [Compound 67] |  | 30 to 50%
16 | CC(C)CN1CCC(CNC(=O)N2CCN(c3ccc(F)cc3)c3ccccc32)CC1 [Compound 64, 4-(4-fluorophenyl)-N-((1-isobutylpiperidin-4-yl)methyl)-3,4-dihydroquinoxaline-1(2H)-carboxamide] |  | ≥ 70%
17 | O=C(N[C@@H]1CCNC1)N1CCN(c2ccccc2)c2cc(F)ccc21 [Compound 65, (R)-6-fluoro-4-phenyl-N-(pyrrolidin-3-yl)-3,4-dihydroquinoxaline-1(2H)-carboxamide] |  | 30 to 50%
18 | O=C(NC[C@H]1CCCN1)N1CCN(c2ccc(F)cc2)c2cc(F)ccc21 [Compound 21, (R)-6-fluoro-4-(4-fluorophenyl)-N-(pyrrolidin-2-ylmethyl)-3,4-dihydroquinoxaline-1(2H)-carboxamide] |  | ≥ 70%
19 | CC(C)(C)CC(=O)N1CCN(C(=O)NC[C@@H]2CCNC2)c2ccccc21 [Compound 129, (R)-4-(3,3-dimethylbutanoyl)-N-(pyrrolidin-3-ylmethyl)-3,4-dihydroquinoxaline-1(2H)-carboxamide] |  | 10 to 30%
20 | O=C(NCC1CCNCC1)N1CCN(c2ccc(F)cc2)c2ccccc21 [Compound 62, 4-(4-fluorophenyl)-N-(piperidin-4-ylmethyl)-3,4-dihydroquinoxaline-1(2H)-carboxamide] |  | 30 to 50%
21 | CC(C)N1CC[C@H](NC(=O)N2CCN(c3cnccn3)c3ccccc32)C1 [Compound 81, (S)-N-(1-isopropylpyrrolidin-3-yl)-4-(pyrazin-2-yl)-3,4-dihydroquinoxaline-1(2H)-carboxamide] |  | 10 to 30%
22 | O=C(NCC1CC1)N1CCN(c2ccc(F)cc2)c2cc(F)ccc21 [Compound 28, N-(cyclopropylmethyl)-6-fluoro-4-(4-fluorophenyl)-3,4-dihydroquinoxaline-1(2H)-carboxamide] |  | 10 to 30%
23 | O=C(N[C@@H]1CCNC1)N1CCN(Cc2ccccc2)c2ccccc21 [Compound 84, (R)-4-benzyl-N-(pyrrolidin-3-yl)-3,4-dihydroquinoxaline-1(2H)-carboxamide] |  | 30 to 50%
24 | CC(C)N1CC[C@H](CNC(=O)N2CCN(c3ccc(F)cc3)c3cc(F)ccc32)C1 [Compound 19, (R)-6-fluoro-4-(4-fluorophenyl)-N-((1-isopropylpyrrolidin-3-yl)methyl)-3,4-dihydroquinoxaline-1(2H)-carboxamide] |  | 50 to 70%
25 | CC(C)CN1CC[C@@H](NC(=O)N2CCN(c3ccc(F)cc3)c3cc(F)ccc32)C1 [Compound 4, (R)-6-fluoro-4-(4-fluorophenyl)-N-(1-isobutylpyrrolidin-3-yl)-3,4-dihydroquinoxaline-1(2H)-carboxamide] |  | ≥ 70%
26 | O=C(NC1CCNCC1)N1CCN(Cc2ccc(F)cc2)c2ccccc21 [Compound 93, 4-(4-fluorobenzyl)-N-(piperidin-4-yl)-3,4-dihydroquinoxaline-1(2H)-carboxamide] |  | 50 to 70%
27 | O=C(NC[C@H]1CCCN1)N1CCN(c2ccccn2)c2ccccc21 [Compound 72, (R)-4-(pyridin-2-yl)-N-(pyrrolidin-2-ylmethyl)-3,4-dihydroquinoxaline-1(2H)-carboxamide] |  | 30 to 50%
28 | CN1CC[C@H](CNC(=O)N2CCN(Cc3ccccc3F)c3ccccc32)C1 [Compound 90, (R)-4-(2-fluorobenzyl)-N-((1-methylpyrrolidin-3-yl)methyl)-3,4-dihydroquinoxaline-1(2H)-carboxamide] |  | 30 to 50%
29 | O=C(N[C@@H]1CCN(C(=O)C(F)(F)F)C1)N1CCN(c2ccc(F)cc2)c2cc(F)ccc21 [Compound 5, (R)-6-fluoro-4-(4-fluorophenyl)-N-(1-(2,2,2-trifluoroacetyl)pyrrolidin-3-yl)-3,4-dihydroquinoxaline-1(2H)-carboxamide] |  | 10 to 30%
